Measurements taken from publication PMC6693746 (PLoS Genetics, 2019).

Legend:
[1] = molecular target: dopamine receptor DopEcR (Helicoverpa armigera, UniProt A0A386QW71); assay: biochemical
[2] = molecular target: T1, dopamine receptor DopEcR (Helicoverpa armigera, UniProt A0A386QW71); assay: saturation binding with isolated receptor, […] enzyme immunoassay; also displacement of DA (Ki […])
T1 construct: DopEcR-GFP-His (GenBank MG596302), isolated from Sf9 cells
T1 sequence (A0A386QW71 1-343): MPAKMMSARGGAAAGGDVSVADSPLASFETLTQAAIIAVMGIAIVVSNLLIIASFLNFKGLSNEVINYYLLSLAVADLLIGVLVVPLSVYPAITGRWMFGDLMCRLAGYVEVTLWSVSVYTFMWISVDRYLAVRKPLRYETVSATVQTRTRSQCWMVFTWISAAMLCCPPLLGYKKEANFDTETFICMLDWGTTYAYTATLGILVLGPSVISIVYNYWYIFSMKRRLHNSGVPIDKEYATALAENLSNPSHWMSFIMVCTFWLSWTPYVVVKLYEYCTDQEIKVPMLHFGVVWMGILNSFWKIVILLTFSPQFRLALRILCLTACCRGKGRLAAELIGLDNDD

[3] = molecular target: T2, dopamine receptor DopEcR (Helicoverpa armigera, UniProt A0A386QW71, T113A/W160A/Y109A/Y68A); assay: saturation binding with isolated mutant receptor, […] enzyme immunoassay (lower Bmax)
T2 construct: DopEcR-M-GFP-His, isolated from Sf9 cells

[4] = molecular target: T3, ErGPCR-2 (Helicoverpa armigera, UniProt A0A0U1ZWU3); assay: saturation binding with isolated receptor, […] enzyme immunoassay
T3 construct: ErGPCR-2-GFP-His, 7TM region and added signal peptide (GenBank AKA95280.1), isolated from Sf9 cells
T3 sequence (A0A0U1ZWU3 430-703 limits assumed): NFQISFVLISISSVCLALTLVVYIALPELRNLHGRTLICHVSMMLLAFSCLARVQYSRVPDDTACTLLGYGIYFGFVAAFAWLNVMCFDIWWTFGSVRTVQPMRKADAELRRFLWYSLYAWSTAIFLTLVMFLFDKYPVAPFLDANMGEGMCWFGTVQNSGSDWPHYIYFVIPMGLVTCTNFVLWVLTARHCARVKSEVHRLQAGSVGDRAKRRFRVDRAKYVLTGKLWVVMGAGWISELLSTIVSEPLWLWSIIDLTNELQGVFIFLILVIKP

SMILES | Kd [1] [nM] | Kd [2] [nM] | Kd [3] [nM] | Kd [4] [nM]
NCCc1ccc(O)c(O)c1 [DA, dopamine] | 448 ± 101 |  |  | 
CC(C)(O)CC[C@@H](O)[C@](C)(O)[C@H]1CC[C@@]2(O)C3=CC(=O)[C@@H]4C[C@@H](O)[C@@H](O)C[C@]4(C)[C@H]3CC[C@]12C [20E, 20-hydroxyecdysone] |  | 18 ± 3 | 20.5 ± 1.98 | 23.3 ± 3.3
